This note sets out measurements from ChEMBL document CHEMBL2384947, “27-Nor-Δ(4)-dafachronic acid is a synthetic ligand of Caenorhabditis elegans DAF-12 receptor” (Bioorg Med Chem Lett, 2013).

Molecules are shown by their SMILES. The source made the active and inactive calls. The rule behind the calls is not given here.

The subject of experiment [1] is Caenorhabditis elegans. Description: Reduction in resistance to H2O2-induced oxidative stress in wild type Caenorhabditis elegans N2 assessed as survival at 250 nM incubated 1 hr prior to H2O2 challenge relative to control. It counts as functional, organism-based.
Experiment [2] deals with Caenorhabditis elegans. Description: Activation of DAF-12 receptor in Caenorhabditis elegans RG1228 harboring daf-9(rh50) mutant assessed as mig phenotype rescue at 250 nM after 3 days.
The subject of experiment [3] is Caenorhabditis elegans. Description: Reduction in resistance to H2O2-induced oxidative stress in Caenorhabditis elegans RG1228 harboring daf-9(rh50) mutant assessed as survival at 250 nM incubated 1 hr prior to H2O2 challenge. It is filed as functional, organism-based.
A short description of experiment [4]: (§1) Transactivation of Caenorhabditis elegans DAF-12 receptor LBD transfected in HEK293 cells co-expressing Gal4-DBD after 20 hrs by luciferase reporter gene assay. It is filed as cell-based. To be noted: HEK293, 20 h.
The next experiment deals with HEK293. The description is as §1. It counts as cell-based.

Take `C[C@H](CCCCC(=O)O)[C@H]1CC[C@H]2[C@@H]3CCC4=CC(=O)CC[C@]4(C)[C@H]3CC[C@]12C`: the outcome in the experiment with Caenorhabditis elegans [1], with Caenorhabditis elegans [2] and in the experiment with Caenorhabditis elegans [3] was Active. In addition, the EC50 in experiment [4] was 10 µM. For the same molecule, the Activity result with HEK293 is “Dose-dependent effect”.
